# Measured values taken from the supplement of paper PMC10307832.
# Legend:
# Experiment in all cases: relative viability (nuclei count vs DMSO), 5 days (fraction); higher = more cells survive
# [1] = compound: CS(=O)(=O)N1CCN(Cc2cc3nc(-c4cccc5[nH]ncc45)nc(N4CCOCC4)c3s2)CC1 [Pictilisib] + C[C@@H](Oc1cc(-c2cnn(C3CCNCC3)c2)cnc1N)c1c(Cl)ccc(F)c1Cl [Crizotinib] (partner 1 µM)
# How it was run: (§1)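 Medians of duplicate plates are given as relative viability. That measure is the nuclei count in treated wells divided by the count in vehicle wells. Counts were taken on 4× images of lung cancer cell lines in 1536-well plates, 5 days after pin-tool dosing the day after seeding with one drug alone or a fixed anchor-drug dose plus five library-drug doses (not always all listed) in √10 steps.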
# [2] = compound: NC1(c2ccc(-c3nc4ccn5c(=O)[nH]nc5c4cc3-c3ccccc3)cc2)CCC1 [MK-2206] + COc1cc2c(Oc3ccc(NC(=O)C4(C(=O)Nc5ccc(F)cc5)CC4)cc3F)ccnc2cc1OCCCN1CCOCC1 [Foretinib] (partner 0.25 µM)
# How it was run: as §1
# [3] = compound: NC1(c2ccc(-c3nc4ccn5c(=O)[nH]nc5c4cc3-c3ccccc3)cc2)CCC1 [MK-2206] + COc1cccc2cc(-c3nc([C@H]4CC[C@H](C(=O)O)CC4)n4ncnc(N)c34)[nH]c12 [OSI-027] (partner 0.5 µM)
# How it was run: as §1
# [4] = compound: NC1(c2ccc(-c3nc4ccn5c(=O)[nH]nc5c4cc3-c3ccccc3)cc2)CCC1 [MK-2206] + NC(=O)Nc1cc(-c2cccc(F)c2)sc1C(=O)N[C@H]1CCCNC1 [AZD7762] (partner 0.2 µM)
# How it was run: as §1
# [5] = compound: NC1(c2ccc(-c3nc4ccn5c(=O)[nH]nc5c4cc3-c3ccccc3)cc2)CCC1 [MK-2206] + Nc1ncn([C@H]2C[C@H](O)[C@@H](CO)O2)c(=O)n1 [Decitabine] (partner 2 µM)
# How it was run: as §1
Cell Line,relative viability ([1]; first compound 0.02 µM),relative viability ([1]; first compound 0.06325 µM),relative viability ([1]; first compound 0.6325 µM),relative viability ([1]; first compound 2 µM),relative viability ([2]; first compound 0.01 µM),relative viability ([2]; first compound 0.03162 µM),relative viability ([2]; first compound 0.3162 µM),relative viability ([2]; first compound 1 µM),relative viability ([3]; first compound 0.01 µM),relative viability ([3]; first compound 0.03162 µM),relative viability ([3]; first compound 0.3162 µM),relative viability ([3]; first compound 1 µM),relative viability ([4]; first compound 0.01 µM),relative viability ([4]; first compound 0.03162 µM),relative viability ([4]; first compound 0.3162 µM),relative viability ([4]; first compound 1 µM),relative viability ([5]; first compound 0.01 µM),relative viability ([5]; first compound 0.03162 µM),relative viability ([5]; first compound 0.3162 µM),relative viability ([5]; first compound 1 µM)
NCI-H441,0.513,0.632,0.504,0.388,0.923,1.03,0.59,0.822,0.922,0.473,0.428,0.393,1.27,0.941,1.25,0.869,0.248,0.251,0.206,0.234
NCI-H520,0.826,0.884,0.504,0.197,0.785,1.16,0.332,0.28,0.243,0.233,0.17,0.238,,,,,0.489,0.527,0.264,0.212
CAL-12T,0.615,0.893,0.704,0.471,1.07,0.962,1.15,1.19,0.67,0.554,0.452,0.485,0.617,0.455,0.716,0.664,,,,
HCC-827,0.901,0.991,0.921,0.548,1.13,1.05,0.945,0.984,0.78,0.871,0.655,0.391,0.325,0.184,0.227,0.186,0.347,0.256,0.276,0.228
LC-2-ad,0.443,0.52,0.392,0.359,0.864,0.952,0.846,0.889,0.76,0.837,0.592,0.383,0.815,0.868,0.889,0.782,0.748,0.79,0.859,0.881
NCI-H2170,1.19,1.09,0.973,0.617,1.06,1.04,1.02,1.02,0.747,0.701,0.625,0.588,0.874,0.765,0.812,0.837,0.482,0.462,0.462,0.443
SW 1573,0.817,0.791,0.626,0.268,0.833,1.28,0.755,0.956,0.628,0.491,0.298,0.423,,,,,0.505,0.43,0.502,0.453
SK-MES-1,1.04,0.971,0.804,0.492,0.893,1.06,0.886,0.84,0.62,0.502,0.452,0.504,,,,,0.383,0.4,0.371,0.321
NCI-H1648,,,,,,,,,0.256,0.246,0.279,0.251,0.657,0.481,0.797,0.855,0.405,0.574,0.483,0.575
NCI-H1793,,,,,0.786,0.779,0.834,0.578,0.274,0.288,0.229,0.199,0.679,0.232,0.243,0.251,0.477,0.552,0.439,0.435
NCI-H1299,0.99,1.03,1.05,0.933,1.15,1.06,1.15,1.16,,,,,,,,,,,,
LCLC-97TM1,0.236,0.277,0.317,0.159,0.881,0.929,0.887,0.804,0.698,0.498,0.249,0.361,0.294,0.12,0.285,0.333,0.242,0.259,0.26,0.206
NCI-H1915,0.855,1,0.889,0.898,1.08,1.16,1.07,1.05,0.646,0.693,0.606,0.496,0.74,0.573,0.735,0.576,0.263,0.252,0.264,0.251
NCI-H661,,1.01,1.24,0.729,1.01,1.09,1.01,0.986,0.729,0.659,0.563,0.584,,,,,0.538,0.574,0.591,0.528
NCI-H2405,0.884,0.854,0.745,0.558,1.03,1.08,0.991,0.98,0.661,0.641,0.56,0.452,0.824,0.769,0.838,0.534,0.766,0.788,0.72,0.74
NCI-H2347,0.695,0.496,0.592,0.545,0.877,0.818,1.15,0.723,0.384,0.375,0.413,0.277,0.778,0.652,0.649,0.636,0.585,0.573,0.591,0.557
NCI-H1651,0.855,0.863,0.84,0.683,0.724,0.658,0.834,0.733,0.786,0.684,0.807,0.784,0.506,0.367,0.466,0.438,0.592,0.652,0.637,0.432
